Measurements: patent publication US7759345B2, “Antitumoral derivatives of ET-743” (priority 2001, dated 2010)
Like-named read-outs stand apart in the source and are kept apart here.

Columns and labels:
A-549 [1] = assay: Inhibition of cell growth by counting cells, A-549; assay type: cell-based, human; details: Homo sapiens, A549, 72 h; three days of incubation; read-out: IC50 (molar) A-549
Experimental: (§1) 1°.—Inhibition of Cell Growth by Counting Cells.
(§2) This form of the assay employs 24 well multidishes of 16 mm diameter (Bergeron, 1984; Schroeder, 1981). The tumor cell lines employed are: P-388 (ATCC CCL 46), suspension culture of a lymphoid neoplasm from a DBA/2 mouse; A-549 (ATCC CCL 185), monolayer culture of a human lung carcinoma; HT-29 (ATCC HTB-38), monolayer culture of a human colon carcinoma; MEL-28 (ATCC HTB-72), monolayer culture of a human melanoma and DU-145 (ATCC HTB-81), monolayer culture of a human prostate carcinoma.
(§3) Cells were maintained, in logarithmic phase of growth in Eagle's Minimum Essential Medium, with Earle's Balanced Salts, with non-essential amino acids, with 2.0 mM L-Glutamine, without sodium bicarbonate (EMEM/neaa), supplemented with 10% Fetal Calf Serum (FCS), 10^−2 M. sodium bicarbonate and 0.1 U/l penicillin G+0.1 g/l streptomycin sulfate. For the experiments, cells are harvested from subconfluent cultures using trypsin and resuspended in fresh medium before plating.
(§4) A-549, HT-29, MEL-28 and DU-145 cells were seeded into 16 mm diameter wells at 1×10^4 cells per well in 1 ml aliquots of EMEM 5% FCS containing different concentrations of the sample to be tested. A separate set of cultures without drug was seeded as control of growth, to ensure that cells remained in exponential phase of growth. All determinations are carrying out in duplicate. After three days of incubation at 37° C., 5% CO2 in a 98% humid atmosphere cells were stained with 0.1% crystal violet. An approximately IC50 was determined by comparing the growth in wells with drug to the growth in wells control.
(§5) For quantifying the activity, after the incubation time, cells are trypsinized and counted in a Coulter Counter ZM. All counts (net cells per well), represent the average of duplicate wells. % G, percent of growth relative to cultures without drug. The results of these assays are used to generate dose-response curves from which more precise IC50 values are determined (sample concentration which produces 50% cell growth inhibition).
(§6) Obtained results may predict the usefulness of a certain drug as a potential cancer treatment. For this technique, compounds which show IC50 values smaller than 1 μg/ml are selected to continue with further studies. IC50's data allow to predict that not only could a drug be cystostatic, but also it could have a potential in terms of tumor reduction.

HT-29 [2] = assay: Inhibition of cell growth by counting cells, HT-29; assay type: cell-based, human; details: Homo sapiens, HT-29, 72 h; three days of incubation; read-out: IC50 (molar) HT-29
Experimental: as §1, §2, §3, §4, §5, §6

A-549 [3] = assay: Inhibition of cells growth by colorimetric assay (SRB), A-549; assay type: cell-based; details: for GI50 / LC50 (concentration for 50% cell killing): Homo sapiens, A549, 48 h; for GI50: read-out: A-549 GI50
Experimental: (§7) 2°.—Inhibition of Cells Growth by Colorimetric Assay.
(§8) A colorimetric type of assay, using sulforhodamine B (SRB) reaction has been adapted for a quantitative measurement of cell growth and viability [following the technique described by Philip Skehan, et al. (1990), New colorimetric cytotoxicity assay for anticancer drug screening, J. Natl. Cancer Inst., 82:1107-1112]
(§9) This form of the assay employs 96 well cell culture microplates of 9 mm diameter (Faircloth, 1988; Mosmann, 1983). Most of the cell lines are obtained from American Type Culture Collection (ATCC) derived from different human cancer types.
(§10) Cells are maintained in RPMI 1640 10% FBS, supplemented with 0.1 g/l penicillin and 0.1 g/l streptomycin sulfate and then incubated at 37° C., 5% CO2 and 98% humidity. For the experiments, cells were harvested from subconfluent cultures using trypsin and resuspended in fresh medium before plating.
(§11) Cells are seeded in 96 well microtiter plates, at 5×10^3 cells per well in aliquots of 195 μl medium, and they are allowed to attach to the plate surface by growing in drug free medium for 18 hours. Afterward, samples are added in aliquots of 5 μl in a ranging from 10 to 10^−8 μg/ml, dissolved in DMSO/EtOH/PBS (0.5:0.5:99). After 48 hours exposure, the antitumor effect are measured by the SRB methodology: cells are fixed by adding 50 μl of cold 50% (wt/vol) trichloroacetic acid (TCA) and incubating for 60 minutes at 4° C. Plates are washed with deionized water and dried. One hundred μl of SRB solution (0.4% wt/vol in 1% acetic acid) is added to each microtiter well and incubated for 10 minutes at room temperature. Unbound SRB is removed by washing with 1% acetic acid. Plates are air dried and bound stain is solubilized with Tris buffer. Optical densities are read on a automated spectrophotometric plate reader at a single wavelength of 490 nm.
(§12) The values for mean+/−SD of data from triplicate wells are calculated. Some parameters for cellular responses can be calculated: GI=growth inhibition, TGI=total growth inhibition (cytostatic effect) and LC=cell killing (cytotoxic effect).
(§13) Obtained results may predict the usefulness of a certain drug as a potential cancer treatment. For this technique, compounds which show GI50 values smaller than 10 μg/ml are selected to continue with further studies. GI50's data allow to predict that not only could a drug be cystostatic, but also it could have a potential in terms of tumor reduction.

HT-29 [4] = assay: Inhibition of cells growth by colorimetric assay (SRB), HT-29; assay type: cell-based; details: for GI50 / LC50 (concentration for 50% cell killing): Homo sapiens, HT-29, 48 h
Experimental: as §7, §8, §9, §10, §11, §12, §13

[5] = read-out: A-549 LC50, SRB assay, 48 hours exposure
[6] = read-out: HT-29 LC50, SRB assay, 48 hours exposure
[7] = SRB assay, 48 hours exposure, read-out: HT-29 GI50

Structure (SMILES)	IC50 (A-549 [1])	IC50 (HT-29 [2])	LC50 (concentration for 50% cell killing) (A-549 [3]; [5])	A-549 TGI (A-549 [3]; SRB assay, 48 hours exposure)	LC50 (concentration for 50% cell killing) (HT-29 [4]; [6])	HT-29 TGI (HT-29 [4]; SRB assay, 48 hours exposure)	other results
COc1cc2c(cc1OC(=O)CCc1ccccc1)CCN[C@]21CS[C@@H]2c3c(OC(C)=O)c(C)c4c(c3[C@H](COC1=O)N1C2[C@H]2c3c(cc(C)c(OC)c3O)C[C@@H]([C@@H]1C#N)N2C)OCO4 (some centres unmarked) [Compound 11]	0.554 nM	0.554 nM					
COc1cc2c(cc1OC(=O)CCCl)CCN[C@]21CS[C@@H]2c3c(OC(C)=O)c(C)c4c(c3[C@H](COC1=O)N1C2[C@H]2c3c(cc(C)c(OC)c3O)C[C@@H]([C@@H]1C#N)N2C)OCO4 (some centres unmarked) [Compound 12]	0.116 nM	0.116 nM					
COc1cc2c(cc1OC(=O)[C@H](C)NC(=O)OC(C)(C)C)CCN[C@]21CS[C@@H]2c3c(OC(C)=O)c(C)c4c(c3[C@H](COC1=O)N1C2[C@H]2c3c(cc(C)c(OC)c3O)C[C@@H]([C@@H]1C#N)N2C)OCO4 (some centres unmarked) [Compound 24]	0.531 nM	0.531 nM					
COc1cc2c(cc1OC(=O)OC(C)(C)C)CCN[C@]21CS[C@@H]2c3c(OC(C)=O)c(C)c4c(c3[C@H](COC1=O)N1C2[C@H]2c3c(cc(C)c(OC)c3OC)C[C@@H]([C@@H]1C#N)N2C)OCO4 (some centres unmarked) [Compound 45]	0.113 nM	0.113 nM					
COC1=C(C)C(=O)C2=C(C1=O)[C@@H]1C3[C@@H]4SC[C@]5(NCCc6cc(O)c(OC)cc65)C(=O)OC[C@@H](c5c6c(c(C)c(OC(C)=O)c54)OCO6)N3[C@@H](C#N)[C@H](C2)N1C (some centres unmarked) [Compound 52]	1.27 nM	1.27 nM					
CCCC(=O)Oc1cc2c(cc1OC)[C@@]1(CS[C@@H]3c4c(OC(C)=O)c(C)c5c(c4[C@H](COC1=O)N1C3[C@H]3c4c(cc(C)c(OC)c4OC(=O)CCC)C[C@@H]([C@@H]1O)N3C)OCO5)NCC2 (some centres unmarked) [Compound 81]	5.54 nM	5.54 nM					
CCCCCCCC(=O)Oc1cc2c(cc1OC)[C@@]1(CS[C@@H]3c4c(OC(C)=O)c(C)c5c(c4[C@H](COC1=O)N1C3[C@H]3c4c(cc(C)c(OC)c4OC(=O)CCCCCCC)C[C@@H]([C@@H]1O)N3C)OCO5)NCC2 (some centres unmarked) [Compound 82]	98.6 nM	98.6 nM					
COc1cc2c(cc1OC(=O)/C=C/c1ccccc1)CCN[C@]21CS[C@@H]2c3c(OC(C)=O)c(C)c4c(c3[C@H](COC1=O)N1C2[C@H]2c3c(cc(C)c(OC)c3OC(=O)/C=C/c3ccccc3)C[C@@H]([C@@H]1O)N2C)OCO4 (some centres unmarked) [Compound 84]	48.9 nM	48.9 nM					
COc1cc2c(cc1O)CCN[C@]21CS[C@@H]2c3c(OC(=O)CCCC[C@@H]4SCC5NC(=O)NC54)c(C)c4c(c3[C@H](COC1=O)N1C2[C@H]2c3c(cc(C)c(OC)c3OC(=O)CCCCC3SCC5NC(=O)NC53)C[C@@H]([C@@H]1C#N)N2C)OCO4 (some centres unmarked) [Compound 148]							A-549 TGI (A-549 [3]; A-549, SRB, 48 hours exposure): 5.19E-07; GI50 (A-549 [3]; A-549, SRB, 48 hours exposure): 255 nM; LC50 (concentration for 50% cell killing) (A-549 [3]; read-out: A-549 LC50, A-549, SRB, 48 hours exposure): 2880 nM; HT-29 TGI (HT-29 [4]; HT-29, SRB, 48 hours exposure): 3.32E-07; GI50 (HT-29 [4]; HT-29, SRB, 48 hours exposure, read-out: HT-29 GI50): 140 nM; LC50 (concentration for 50% cell killing) (HT-29 [4]; read-out: HT-29 LC50, HT-29, SRB, 48 hours exposure): 786 nM
CCCC(=O)Oc1cc2c(cc1OC)[C@@]1(CS[C@@H]3c4c(OC(C)=O)c(C)c5c(c4[C@H](COC1=O)N1C3[C@H]3c4c(cc(C)c(OC)c4OC(=O)CCC)C[C@@H]([C@@H]1C#N)N3C(=O)OC(C)(C)C)OCO5)NCC2 (some centres unmarked) [Compound 193]			100 nM	4.01E-09	20100 nM	2.01E-08	GI50 (A-549 [3]): 0.401 nM; GI50 (HT-29 [4]; read-out: HT-29 GI50): 0.1 nM
COc1cc2c(cc1O)CCN(C)[C@]21CS[C@@H]2c3c(OC(C)=O)c(C)c4c(c3[C@H](COC1=O)N1C2[C@H]2c3c(cc(C)c(OC)c3O)C[C@@H]([C@@H]1C#N)N2C(=O)OC(C)(C)C)OCO4 (some centres unmarked) [Compound 200]			115 nM	3.45E-08	1150 nM	8.05E-09	GI50 (A-549 [3]; SRB assay, 48 hours exposure): 23 nM; GI50 (HT-29 [4]; [7]): 23 nM
COc1cc2c(cc1OC(C)=O)CCN[C@]21CS[C@@H]2c3c(OC(C)=O)c(C)c4c(c3[C@H](COC1=O)N1C2[C@@H]2N[C@@H](Cc3cc(C)c(OC)c(O)c32)[C@@H]1O)OCO4 (some centres unmarked) [Compound 210]			38000 nM	5.06E-13	63300 nM	6.33E-08	
CCCC(=O)Oc1cc2c(cc1OC)[C@@]1(CS[C@@H]3c4c(OC(C)=O)c(C)c5c(c4[C@H](COC1=O)N1C3[C@@H]3N[C@@H](Cc4cc(C)c(OC)c(O)c43)[C@@H]1O)OCO5)NCC2 (some centres unmarked) [Compound 211]			61100 nM	6.11E-09	61100 nM	1.22E-12	GI50 (A-549 [3]; SRB assay, 48 hours exposure): 0.00367 nM; GI50 (HT-29 [4]; [7]): 0.00122 nM
CC(=O)Oc1c(C)c2c(c3c1[C@H]1SCC(=O)C(=O)OC[C@@H]3N3C1[C@H]1c4c(cc(C)c(O)c4O)C[C@@H]([C@@H]3C#N)N1C)OCO2 (some centres unmarked) [Compound 219]			16500 nM	1.65E-06	16500 nM	1.65E-06	GI50 (A-549 [3]; SRB assay, 48 hours exposure): 8.24 nM; GI50 (HT-29 [4]; [7]): 82.4 nM
COc1cc2c(cc1O)CCN[C@]21CS[C@@H]2c3c(OC(C)=O)c(C)c4c(c3[C@H](COC1=O)N1C2[C@H]2c3c(cc(C)c(O)c3O)C[C@@H]([C@@H]1C#N)N2C)OCO4 (some centres unmarked) [Compound 220]			6610 nM	3.96E-07			GI50 (A-549 [3]): 132 nM; GI50 (HT-29 [4]; read-out: H-T29 GI50): 132 nM; LC50 (concentration for 50% cell killing) (HT-29 [4]; read-out: H-T29 LC50, SRB assay, 48 hours exposure): 1320 nM; H-T29 TGI (HT-29 [4]; SRB assay, 48 hours exposure): 5.28E-07
